Data: the NIST ThermoML archive (doi:10.1007/s10765-008-0497-7)

Details: Liquid

CCCCCCCCCCn1cc[n+](C)c1.O=S(=O)([N-]S(=O)(=O)C(F)(F)F)C(F)(F)F
viscosity [mPa·s]
Details	298.15 K	323.15 K	343.15 K
100 kPa, Moving piston method	108.2	36.2	18.15
101.33 kPa, Cone and plate viscometry	111.2	–	–
101.33 kPa, Moving piston method	108.2	36.3	18.2
2950 kPa, Moving piston method	111.5	37.5	18.55
4270 kPa, Moving piston method	112.8	38.2	18.75
6900 kPa, Moving piston method	117.6	39.2	19.3
34600 kPa, Moving piston method	167.5	53.6	25.76
47960 kPa, Moving piston method	199	61.8	29.15
68870 kPa, Moving piston method	257	76	35.72
83290 kPa, Moving piston method	301.1	85.9	40.47
93030 kPa, Moving piston method	336.7	94.3	44.56
109800 kPa, Moving piston method	402.7	110.8	51.26
122570 kPa, Moving piston method	459.8	122.6	56.74

CCCCCCn1cc[n+](C)c1.F[P-](F)(F)(F)(F)F [1-hexyl-3-methylimidazolium hexafluorophosphate]
viscosity [mPa·s]
Details	298.15 K	323.15 K	343.15 K
100 kPa, Moving piston method	481	121.4	48.1
101.33 kPa, Cone and plate viscometry	489.5	–	–
101.33 kPa, Moving piston method	481.4	121.4	48.1
2990 kPa, Moving piston method	523	–	–
4000 kPa, Moving piston method	530	127.1	50.3
7000 kPa, Moving piston method	556	–	–
7600 kPa, Moving piston method	–	132.4	52
22000 kPa, Moving piston method	701	–	–
25800 kPa, Moving piston method	–	164	62.6
35000 kPa, Moving piston method	833	182.6	68.6
42100 kPa, Moving piston method	920	–	–
50000 kPa, Moving piston method	1023	–	–
50600 kPa, Moving piston method	–	218.9	80.5
60300 kPa, Moving piston method	1176	241.7	88.1
76000 kPa, Moving piston method	–	280.8	102.5
93000 kPa, Moving piston method	–	334.2	118.7
101000 kPa, Moving piston method	–	364.2	127.1
126000 kPa, Moving piston method	–	483.1	157.8

CCCCCCn1cc[n+](C)c1.F[B-](F)(F)F [1-hexyl-3-methylimidazolium tetrafluoroborate]
viscosity [mPa·s]
Details	Cone and plate viscometry	Moving piston method
298.15 K, 100 kPa	–	202
298.15 K, 101.33 kPa	210.4	202.4
298.15 K, 2640 kPa	–	209
298.15 K, 4290 kPa	–	213
298.15 K, 6950 kPa	–	215
298.15 K, 34590 kPa	–	299
298.15 K, 48400 kPa	–	387
298.15 K, 68140 kPa	–	478
298.15 K, 82970 kPa	–	532
298.15 K, 96820 kPa	–	621
298.15 K, 108550 kPa	–	743
298.15 K, 117850 kPa	–	819
323.15 K, 100 kPa	–	58.5
323.15 K, 101.33 kPa	–	58.5
323.15 K, 2600 kPa	–	59.7
323.15 K, 4130 kPa	–	61
323.15 K, 6850 kPa	–	62
323.15 K, 34520 kPa	–	79.9
323.15 K, 48180 kPa	–	91.1
323.15 K, 68990 kPa	–	108.2
323.15 K, 82710 kPa	–	121.8
323.15 K, 96550 kPa	–	136
323.15 K, 110120 kPa	–	152.4
323.15 K, 121810 kPa	–	165
343.15 K, 100 kPa	–	27
343.15 K, 101.33 kPa	–	27
343.15 K, 3100 kPa	–	27.6
343.15 K, 4100 kPa	–	27.5
343.15 K, 7100 kPa	–	28
343.15 K, 35100 kPa	–	35.2
343.15 K, 48340 kPa	–	39.2
343.15 K, 68140 kPa	–	45
343.15 K, 83080 kPa	–	49.9
343.15 K, 96550 kPa	–	55.1
343.15 K, 110120 kPa	–	60.8
343.15 K, 121810 kPa	–	65
